Results published in US9499550B2 (BRISTOL-MYERS SQUIBB COMPANY, priority 2012, dated 2016).
Where two headings read alike, the source gives them in different places.

What was measured:
[1] = tested on: HCV genotype 1a (H77 strain) replicon in HUH-7 cells; experiment: HCV replicon luciferase reporter assay, genotype 1a; assay type: cell-based; conditions: Hepatitis C virus, Huh-7, 72 h, 3 days incubation, read-out: LE_1a (EC50, range)
In short: (§1)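 Replicon inhibition for both genotypes was measured as Renilla luciferase signal (EnduRen, 7.5 μM final, 2 h) after 3-day, 37° C exposure of replicon-bearing HUH-7 cells in 4% FCS DMEM, 0.5% DMSO. The 1b construct carries S1179I; the 1a H77 construct carries P1496L and S2204I. Twenty-point, 3-fold dilutions were fitted four-parametrically for EC50, and CC50 was taken from multiplexed Cell Titer-Blue.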

[2] = tested on: HCV genotype 1b (Con1) replicon in HUH-7 cells; experiment: HCV replicon luciferase reporter assay, genotype 1b; assay type: cell-based; conditions: Hepatitis C virus, Huh-7, 72 h, 3 days incubation, read-out: LE_1b (EC50, range)
In short: as §1

[3] = HCV genotype 1a replicon luciferase
[4] = HCV genotype 1b replicon luciferase

Row | SMILES | EC50 ([1]; HCV genotype 1a replicon luciferase assay, range class) | EC50 ([2]; HCV genotype 1b replicon luciferase assay, range class) | EC50 [1, 3] | EC50 [2, 4]
1 | COc1ccc2c(O[C@@H]3C[C@H]4C(=O)N[C@]5(C(=O)NS(=O)(=O)C6(CF)CC6)C[C@H]5/C=C\CC[C@H](C)C[C@@H](C)[C@H](NC(=O)OC(C)(C)C(F)(F)F)C(=O)N4C3)nc(Cl)cc2c1 [Compound 1164, 1,1,1-trifluoro-2-methylpropan-2-yl((2R,6S,7R,9S,13aS,14aR,16aS,Z)-2-((3-chloro-6-methoxyisoquinolin-1-yl)oxy)-14a-(((1-(fluoromethyl)cyclopropyl)sulfonyl)carbamoyl)-7,9-dimethyl-5,16-dioxo-1,2,3,5,6,7,8,9,10,11,13a,14,14a,15,16,16a-hexadecahydrocyclopropa[e]pyrrolo[1,2-a][1,4]diazacyclopentadecin-6-yl)carbamate] | 4.82 to 103 nM | 4.82 to 103 nM |  | 
2 | CCCOc1cnc(O[C@@H]2C[C@H]3C(=O)N[C@]4(C(=O)NS(=O)(=O)C5CC5)C[C@H]4/C=C\CC[C@@H](C)C[C@@H](C)[C@H](NC(=O)OC(C)(C)C)C(=O)N3C2)c2ccccc12 [Compound 5089, tert-butyl ((2R,6S,7R,9R,13aS,14aR,16aS,Z)-14a-((cyclopropylsulfonyl)carbamoyl)-7,9-dimethyl-5,16-dioxo-2-((4-propoxyisoquinolin-1-yl)oxy)-1,2,3,5,6,7,8,9,10,11,13a,14,14a,15,16,16a-hexadecahydrocyclopropa[e]pyrrolo[1,2-a][1,4]diazacyclopentadecin-6-yl)carbamate] |  |  | < 5.46 nM | < 5.46 nM
3 | CC[C@@H]1C[C@H](C)CC/C=C\[C@@H]2C[C@@]2(C(=O)NS(=O)(=O)C2(C)CC2)NC(=O)[C@@H]2C[C@@H](Oc3cnc4ccc(OC)cc4c3)CN2C(=O)[C@H]1NC(=O)OC(C)(C)C [Compound 4201, tert-butyl (2R,6S,7R,9R,13aS,14aR,16aS,Z)-7-ethyl-2-(6-methoxyquinolin-3-yloxy)-9-methyl-14a-(1-methylcyclopropylsulfonylcarbamoyl)-5,16-dioxo-1,2,3,5,6,7,8,9,10,11,13a,14,14a,15,16,16a-hexadecahydrocyclopropa[e]pyrrolo[1,2-a][1,4]diazacyclopentadecin-6-ylcarbamate] |  |  | < 5.46 nM | < 5.46 nM
4 | COc1cc2ccnc(O[C@@H]3C[C@H]4C(=O)N[C@]5(C(=O)NS(=O)(=O)C6(F)CC6)C[C@H]5/C=C\CC[C@@H](C)C[C@@H](C)[C@H](NC(=O)OC(C)(C)C)C(=O)N4C3)c2cc1Cl [Compound 4024, tert-butyl (2R,6S,7R,9R,13aS,14aR,16aS,Z)-2-(7-chloro-6-methoxyisoquinolin-1-yloxy)-14a-(1-fluorocyclopropylsulfonylcarbamoyl)-7,9-dimethyl-5,16-dioxo-1,2,3,5,6,7,8,9,10,11,13a,14,14a,15,16,16a-hexadecahydrocyclopropa[e]pyrrolo[1,2-a][1,4]diazacyclopentadecin-6-ylcarbamate] |  |  | < 5.46 nM | < 5.46 nM
5 | C[C@@H]1CC/C=C\[C@@H]2C[C@@]2(C(=O)NS(=O)(=O)C2(F)CC2)NC(=O)[C@@H]2C[C@@H](Oc3ncc(OC4CC4)c4ccccc34)CN2C(=O)[C@@H](NC(=O)OC(C)(C)C)[C@H](C)C1 [Compound 4225, tert-butyl (2R,6S,7R,9R,13aS,14aR,16aS,Z)-2-(4-cyclopropoxyisoquinolin-1-yloxy)-14a-(1-fluorocyclopropylsulfonylcarbamoyl)-7,9-dimethyl-5,16-dioxo-1,2,3,5,6,7,8,9,10,11,13a,14,14a,15,16,16a-hexadecahydrocyclopropa[e]pyrrolo[1,2-a][1,4]diazacyclopentadecin-6-ylcarbamate] |  |  | < 5.46 nM | < 5.46 nM
